For test [1], the target named is T1, Atypical kinase COQ8B, mitochondrial (Homo sapiens) (UniProt Q96D53).
T1 sequence (whole entry): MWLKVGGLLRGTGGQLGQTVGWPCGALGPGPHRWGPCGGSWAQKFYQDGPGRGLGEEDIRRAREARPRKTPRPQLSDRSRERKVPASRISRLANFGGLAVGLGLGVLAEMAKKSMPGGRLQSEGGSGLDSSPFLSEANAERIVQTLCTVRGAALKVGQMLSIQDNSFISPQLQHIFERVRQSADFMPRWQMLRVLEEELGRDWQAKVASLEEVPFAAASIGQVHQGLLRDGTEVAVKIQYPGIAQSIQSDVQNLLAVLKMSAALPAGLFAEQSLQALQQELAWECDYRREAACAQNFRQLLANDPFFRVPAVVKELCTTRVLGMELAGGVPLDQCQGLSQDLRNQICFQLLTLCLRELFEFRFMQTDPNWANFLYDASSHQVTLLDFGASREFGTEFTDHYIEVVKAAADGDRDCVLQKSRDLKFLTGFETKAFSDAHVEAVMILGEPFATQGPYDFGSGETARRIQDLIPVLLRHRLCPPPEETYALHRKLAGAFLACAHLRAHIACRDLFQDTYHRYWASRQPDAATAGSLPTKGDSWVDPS
Briefly: Selectivity interaction (KinomeScan (DiscoverX)) EUB0000595a ADCK4. Conditions: at 10 µM.

In test [2] the target is Tyrosine-protein kinase HCK (Homo sapiens) (UniProt P08631). In words: Selectivity interaction (KinomeScan (DiscoverX)) EUB0000666a HCK. Conditions: at 10 µM.
Tyrosine-protein kinase HCK (Homo sapiens), sequence (P08631 2-526 limits assumed): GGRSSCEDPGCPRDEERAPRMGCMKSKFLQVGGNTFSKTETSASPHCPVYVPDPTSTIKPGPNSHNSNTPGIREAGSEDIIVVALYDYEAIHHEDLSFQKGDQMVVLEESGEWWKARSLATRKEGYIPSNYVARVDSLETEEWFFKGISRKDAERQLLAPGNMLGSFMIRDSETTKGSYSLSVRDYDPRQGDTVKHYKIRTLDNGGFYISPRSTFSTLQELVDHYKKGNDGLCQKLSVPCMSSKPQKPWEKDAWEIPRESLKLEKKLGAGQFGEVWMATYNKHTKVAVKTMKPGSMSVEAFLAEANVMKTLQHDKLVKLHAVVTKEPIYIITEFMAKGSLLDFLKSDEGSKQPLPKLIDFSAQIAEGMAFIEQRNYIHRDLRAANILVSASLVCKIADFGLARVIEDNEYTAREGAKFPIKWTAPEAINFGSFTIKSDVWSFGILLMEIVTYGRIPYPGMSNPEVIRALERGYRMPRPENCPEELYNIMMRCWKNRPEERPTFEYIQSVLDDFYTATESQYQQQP
In test [3] the target is T2, Serine/threonine-protein kinase D1 (Homo sapiens) (UniProt Q15139).
T2 sequence (whole entry): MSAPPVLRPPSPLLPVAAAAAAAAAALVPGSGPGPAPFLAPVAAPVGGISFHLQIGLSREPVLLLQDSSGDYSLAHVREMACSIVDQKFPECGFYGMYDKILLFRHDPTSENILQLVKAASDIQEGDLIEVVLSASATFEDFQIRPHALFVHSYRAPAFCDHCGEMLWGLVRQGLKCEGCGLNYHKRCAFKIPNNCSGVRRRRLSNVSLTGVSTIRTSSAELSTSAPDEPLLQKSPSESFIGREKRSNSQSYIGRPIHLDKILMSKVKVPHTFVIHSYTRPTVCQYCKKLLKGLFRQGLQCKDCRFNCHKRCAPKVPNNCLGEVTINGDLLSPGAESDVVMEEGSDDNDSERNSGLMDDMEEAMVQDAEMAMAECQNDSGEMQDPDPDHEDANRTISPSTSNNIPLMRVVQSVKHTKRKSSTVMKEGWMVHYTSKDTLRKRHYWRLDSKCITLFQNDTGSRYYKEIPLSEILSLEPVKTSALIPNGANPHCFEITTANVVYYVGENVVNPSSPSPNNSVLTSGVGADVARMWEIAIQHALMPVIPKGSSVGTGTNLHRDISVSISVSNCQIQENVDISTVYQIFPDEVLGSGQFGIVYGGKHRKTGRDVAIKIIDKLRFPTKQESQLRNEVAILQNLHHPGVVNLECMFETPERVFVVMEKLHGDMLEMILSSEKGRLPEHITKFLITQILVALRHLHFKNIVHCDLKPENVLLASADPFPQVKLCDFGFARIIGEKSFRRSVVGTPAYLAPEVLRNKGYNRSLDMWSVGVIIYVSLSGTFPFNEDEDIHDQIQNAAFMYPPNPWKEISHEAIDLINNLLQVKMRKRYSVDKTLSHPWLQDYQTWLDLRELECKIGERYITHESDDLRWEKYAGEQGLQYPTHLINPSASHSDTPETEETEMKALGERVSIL
In words: Selectivity interaction (Kinase panel (literature)) EUB0001199aCl PRKD1. The settings on record: at 1 µM.

Test [4] addresses T3, Mitogen-activated protein kinase kinase kinase 7 (Homo sapiens) (UniProt O43318).
T3 sequence (whole entry): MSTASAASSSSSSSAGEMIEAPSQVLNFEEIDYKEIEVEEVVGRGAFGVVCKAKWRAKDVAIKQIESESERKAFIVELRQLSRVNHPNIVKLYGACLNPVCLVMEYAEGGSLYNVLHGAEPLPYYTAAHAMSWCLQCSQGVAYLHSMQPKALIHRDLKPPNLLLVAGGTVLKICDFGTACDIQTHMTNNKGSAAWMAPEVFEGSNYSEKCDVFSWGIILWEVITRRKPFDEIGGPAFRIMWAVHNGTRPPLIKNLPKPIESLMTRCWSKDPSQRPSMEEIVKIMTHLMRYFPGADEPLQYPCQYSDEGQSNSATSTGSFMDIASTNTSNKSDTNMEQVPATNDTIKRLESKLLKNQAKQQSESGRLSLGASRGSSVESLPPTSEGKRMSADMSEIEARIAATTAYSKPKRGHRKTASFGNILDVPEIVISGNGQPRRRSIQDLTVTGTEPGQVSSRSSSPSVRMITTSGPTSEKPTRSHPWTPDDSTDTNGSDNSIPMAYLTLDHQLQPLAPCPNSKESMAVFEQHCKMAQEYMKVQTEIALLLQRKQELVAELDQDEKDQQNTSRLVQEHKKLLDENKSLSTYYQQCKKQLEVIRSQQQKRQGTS
Briefly: Selectivity interaction (Upstate Kinase Profiler service (Millipore)) EUB0000056c MAP3K7. Conditions: at 1 µM.

Test [5] deals with T4, Serine/threonine-protein kinase 4 (Homo sapiens) (UniProt Q13043).
T4 sequence (whole entry): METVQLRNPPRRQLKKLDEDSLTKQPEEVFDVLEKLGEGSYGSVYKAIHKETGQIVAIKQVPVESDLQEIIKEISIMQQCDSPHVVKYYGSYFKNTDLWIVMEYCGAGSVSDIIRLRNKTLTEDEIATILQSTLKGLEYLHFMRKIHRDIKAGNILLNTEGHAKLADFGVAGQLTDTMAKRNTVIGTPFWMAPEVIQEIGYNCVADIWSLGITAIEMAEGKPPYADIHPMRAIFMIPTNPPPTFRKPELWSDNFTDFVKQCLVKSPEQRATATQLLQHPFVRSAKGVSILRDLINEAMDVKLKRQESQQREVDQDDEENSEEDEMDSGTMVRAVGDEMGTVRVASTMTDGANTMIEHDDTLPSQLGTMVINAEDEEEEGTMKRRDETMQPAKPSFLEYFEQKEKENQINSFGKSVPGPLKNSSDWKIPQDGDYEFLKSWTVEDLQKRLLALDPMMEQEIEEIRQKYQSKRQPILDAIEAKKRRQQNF
In words: Selectivity interaction (Kinase panel (DSF assay)) EUB0001558a STK4. On the technique in general: In DSF a fluorescence change marks the thermal transition of the protein.

Molecules are shown by their SMILES.

For the compound `COCC(=O)NC/C=C/c1ccc2ncnc(Nc3ccc(Oc4ccc(C)nc4)c(C)c3)c2c1` [CP-724714], the % of control in test [1] is 98%. The compound `O=C(NOC[C@H](O)CO)c1ccc(F)c(F)c1Nc1ccc(I)cc1F` gave a % of control in test [2] of 100%. As for `CN1Cc2nccc(-c3cn(C)nc3-c3ccc(F)cc3)c2C1=O`, the % of inhibition in test [3] is -11%. Take `Cc1ccc(-c2ccc3c(ccc4sc5c(c43)NC[C@@H](C)NC5=O)n2)cn1`: in test [4], the % of inhibition worked out at 6%. On to `CC(C)(O)[C@H](F)CN1Cc2cc(NC(=O)c3cnn4cccnc34)c(N3CCOCC3)cc2C1=O`, for which the dTM in test [5] was 1.9 K.

For the origin of these results see ChEMBL document CHEMBL5465560, “Selectivity Literature for EUbOPEN Chemogenomic Library” (2024).
